Data as given in PMC4052451 (Journal of medicinal chemistry, 2013).
Values belong to the molecule of their own block, whether it stands above or below them. *: point of attachment. Dnp = O=[N+]([O-])c1ccc(*)c([N+](=O)[O-])c1; Mca = COc1ccc2c(CC(=O)*)cc(=O)oc2c1

How the values were obtained:
[1] = ref [15],[24]; cited from earlier work
N-domain of sACE-1 = N-domain of sACE-1 (Homo sapiens, UniProt P12821); assay: Reversible inhibition of the N-domain of sACE-1, fluorogenic substrate Abz-SDK; type: biochemical; conditions: Abz-SDK(Dnp)P-OH 7.5, 10, 15 µM; absence of co-reactants
Chain of N-domain of sACE-1 (P12821 30-1261): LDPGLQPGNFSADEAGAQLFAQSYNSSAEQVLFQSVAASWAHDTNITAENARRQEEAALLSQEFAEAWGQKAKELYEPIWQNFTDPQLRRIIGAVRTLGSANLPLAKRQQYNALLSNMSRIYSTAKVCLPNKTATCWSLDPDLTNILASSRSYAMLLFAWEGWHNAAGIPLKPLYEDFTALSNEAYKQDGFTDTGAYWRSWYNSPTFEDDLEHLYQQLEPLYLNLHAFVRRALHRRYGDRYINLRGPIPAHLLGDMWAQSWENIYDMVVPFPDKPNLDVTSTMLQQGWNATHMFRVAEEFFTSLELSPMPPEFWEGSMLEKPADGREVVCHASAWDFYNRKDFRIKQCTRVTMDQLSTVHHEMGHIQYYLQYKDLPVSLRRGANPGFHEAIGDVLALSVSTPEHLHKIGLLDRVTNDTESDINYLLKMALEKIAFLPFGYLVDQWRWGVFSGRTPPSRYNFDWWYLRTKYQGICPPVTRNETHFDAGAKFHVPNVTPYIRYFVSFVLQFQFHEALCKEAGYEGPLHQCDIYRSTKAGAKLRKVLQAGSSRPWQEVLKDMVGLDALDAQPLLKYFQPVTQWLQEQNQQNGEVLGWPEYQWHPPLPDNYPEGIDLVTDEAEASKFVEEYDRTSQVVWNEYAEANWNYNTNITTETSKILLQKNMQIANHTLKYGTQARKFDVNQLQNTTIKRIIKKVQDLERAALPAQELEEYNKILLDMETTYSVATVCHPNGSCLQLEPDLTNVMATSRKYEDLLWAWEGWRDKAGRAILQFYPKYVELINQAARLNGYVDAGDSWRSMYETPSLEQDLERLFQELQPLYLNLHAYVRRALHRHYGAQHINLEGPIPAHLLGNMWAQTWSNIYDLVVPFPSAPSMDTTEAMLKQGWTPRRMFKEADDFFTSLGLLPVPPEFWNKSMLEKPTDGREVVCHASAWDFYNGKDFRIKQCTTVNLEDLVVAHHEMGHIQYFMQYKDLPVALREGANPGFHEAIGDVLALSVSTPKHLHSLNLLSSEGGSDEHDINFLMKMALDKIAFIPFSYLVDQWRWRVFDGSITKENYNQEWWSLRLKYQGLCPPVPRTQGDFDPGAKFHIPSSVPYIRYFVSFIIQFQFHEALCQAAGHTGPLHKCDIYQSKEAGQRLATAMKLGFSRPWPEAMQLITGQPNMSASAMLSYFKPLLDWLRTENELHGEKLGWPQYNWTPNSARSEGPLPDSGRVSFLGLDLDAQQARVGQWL

C-domain of sACE-1 = C-domain of sACE-1 (Homo sapiens, UniProt P12821); assay: Reversible inhibition of the C-domain of sACE-1, fluorogenic substrate Abz-LFK; type: biochemical; conditions: Abz-LFK(Dnp)-OH 7.5, 10, 15 µM; absence of co-reactants
Chain of C-domain of sACE-1 (P12821 30-1261): as above

sACE-1 = sACE-1 (Homo sapiens, UniProt P12821); conditions: generic substrate of previous study; ref [30]; cited from earlier work
Chain of sACE-1 (P12821 30-1261): as above

ACE = conditions: ref [38]; cited from earlier work
[2] = in SHR; ref [38]; cited from earlier work

Molecule: Ac-Asp-(L)Pheψ(PO2-CH2)(L)Ala-Ala-NH2 [RXP407]
- Effect on blood pressure regulation [1]: no effect on blood pressure regulation

- Inhibition mode by Dixon plot (N-domain) (N-domain of sACE-1): competitive inhibitors
- Inhibition mode by Dixon plot (C-domain) (C-domain of sACE-1): competitive inhibitors
Molecule: NCCCC[C@H](N[C@@H](CCc1ccccc1)C(=O)O)C(=O)N1CCC[C@H]1C(=O)O [Lisinopril]

Molecule: Mca-RPPGFSAFK(Dnp)-OH (SMILES COc1ccc2c(CC(=O)N[C@@H](CCCNC(=N)N)C(=O)N3CCC[C@H]3C(=O)N3CCC[C@H]3C(=O)NCC(=O)N[C@@H](Cc3ccccc3)C(=O)N[C@@H](CO)C(=O)N[C@@H](C)C(=O)N[C@@H](Cc3ccccc3)C(=O)N[C@@H](CCCCNc3ccc([N+](=O)[O-])cc3[N+](=O)[O-])C(=O)O)cc(=O)oc2c1)
- Km (sACE-1): 4.5 ± 0.6 µM
- kcat (sACE-1): 1220 ± 50 min⁻¹

Molecule: Ile-Pro-Pro
- IC50 (ACE): 5 µM
- lowers blood pressure [2]: ≤ 30 mmHg
